# Source: ChEMBL document CHEMBL1130482, “Synthesis and activity of C2-substituted analogs of influenza neuraminidase inhibitor GS 4071” (Bioorg Med Chem Lett, 1997)
# Assay: Concentration required for the inhibition of influenza neuraminidase activity by 50%
# Parameters: species or system unidentified influenza virus
row,Compound,IC50 [nM]
1,CCC(CC)O[C@@H]1C(SC)=C(C(=O)O)C[C@H](N)[C@H]1NC(C)=O,3400
2,CCC(CC)O[C@@H]1C(C)=C(C(=O)O)C[C@H](N)[C@H]1NC(C)=O,2300
3,CCC(CC)O[C@@H]1C(Cl)=C(C(=O)O)C[C@H](N)[C@H]1NC(C)=O,3100
4,CCC(CC)O[C@@H]1C=C(C(=O)O)C[C@H](N)[C@H]1NC(C)=O [OSELTAMIVIR CARBOXYLATE],1.4
